For 7 molecules, Transmittance results results are on record in patent publication US20250302746A1, “METHOD FOR PRODUCING EMULSIFIED COMPOSITION” (Daicel Corporation, priority 2022, published 2025).

This data set can be described thus: Test Example 4: transmittance of emulsified composition (660 nm, optical path 10 mm). The format is physicochemical. The following applies: balance glycerol, heated 120° C. 3 min, 15000 rpm. On the procedure:
The transmittance of the emulsified composition produced in this example was determined as a transmittance for light having a wave length of 660 nm at a measurement optical path length of 10 mm using an ultraviolet-visible spectrophotometer UV-1800 (manufactured by Shimadzu Corporation). In the following test, a case where the transmittance was less than 40% was indicated by “C”, a case where the transmittance was 40% or greater and less than 80% was indicated by “B”, and a case where the transmittance was 80% or greater was indicated by “A”.
A solution having a composition of parts by weight shown in Table 4 (a solution in which the balance is glycerol and the total is 100 parts by weight) was prepared and heated at 120° C. for 3 minutes using a block heater. During being heated, the solution was mixed using a polytron homogenizer at 15000 rpm. Thereafter, the solution was allowed to stand at room temperature (about 25° C.) and the temperature of the solution was lowered to room temperature (about 25° C.) to produce an emulsified composition, and the transmittance was measured.

[1] abbreviates: urolithin 0.5, RYOTO polyglyester L-7D (HLB 17.0) 50 parts by weight.
Setting [2] is: urolithin 0.1, RYOTO polyglyester L-7D (HLB 17.0) 50 parts by weight.

Consider `O=c1oc2cc(O)ccc2c2cc(O)ccc12` [Isourolithin A, isourolithin A], for which the Transmittance results under setting [1] is “B (the transmittance was 40% or greater and less than 80%)”. In the case of `O=c1oc2cc(O)ccc2c2ccccc12` [Urolithin B, urolithin B], the Transmittance results (urolithin 1.0, RYOTO polyglyester L-7D (HLB 17.0) 50 parts by weight) is on record as “A (the transmittance was 80% or greater)”. As for `O=c1oc2cc(O)ccc2c2cc(O)c(O)cc12` [Urolithin C, urolithin C], the Transmittance results under setting [2] is on record as “A (the transmittance was 80% or greater)”.

For the molecule `O=c1oc2c(O)c(O)ccc2c2c(O)c(O)c(O)cc12` [Urolithin M5, urolithin M5], under setting [2], the Transmittance results was “A (the transmittance was 80% or greater)”. Turning to `O=c1oc2cc(O)ccc2c2c(O)c(O)c(O)cc12` [Urolithin M6, urolithin M6], under setting [1], the Transmittance results is reported as “A (the transmittance was 80% or greater)”.

As for `O=c1oc2cc(O)ccc2c2c(O)cc(O)cc12` [Urolithin M7, urolithin M7], the Transmittance results under setting [2] was “A (the transmittance was 80% or greater)”. As for urolithin M8, the Transmittance results under setting [1] is “A (the transmittance was 80% or greater)”.
